Values quoted from earlier work as cited in patent publication EP3336085A1, “PROCESS AND INTERMEDIATE FOR THE PREPARATION OF 1-(4-(2-((1-(3,4-DIFLUOROPHENYL)-1H-PYRAZOL-3-YL)METHOXY)ETHYL)PIPERAZIN-1-YL)ETHANONE” (Laboratorios del Dr. Esteve S.A., priority 2016, dated 2018).
Read-outs that look alike come from different tables or passages of the source.

Columns and labels:
sigma-1 (σ1) receptor = sigma-1 (σ1) receptor (Homo sapiens, UniProt Q99720)
Chain of sigma-1 (σ1) receptor (Q99720 whole entry): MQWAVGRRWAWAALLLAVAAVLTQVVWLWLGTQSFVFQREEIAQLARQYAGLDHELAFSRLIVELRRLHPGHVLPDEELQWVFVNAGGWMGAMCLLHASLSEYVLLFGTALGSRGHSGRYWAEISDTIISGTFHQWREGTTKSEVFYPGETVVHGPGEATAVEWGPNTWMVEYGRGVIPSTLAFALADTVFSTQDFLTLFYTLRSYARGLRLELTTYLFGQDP

For `CC(=O)N1CCN(CCOCc2ccn(-c3ccc(F)c(F)c3)n2)CC1.Cl` [1-(4-(2-((1-(3,4-difluorophenyl)-1 H-pyrazol-3-yl)methoxy)ethyl)piperazin-1-yl)ethanone hydrochloride], the “sigma-1 (σ1) receptor antagonist selectivity” value (sigma-1 (σ1) receptor) is listed as “highly selective”, the water solubility (pH=2) is listed as “very soluble” and the water solubility (pH=7.4) is listed as “very soluble”.
